# Reference: patent publication US11465986B2, “Crystal form of c-MET inhibitor and salt form thereof and preparation method therefor” (FUJIAN AKEYLINK BIOTECHNOLOGY CO., LTD., priority 2018, dated 2022)
# Experiment: Stability test of the crystal forms (HPLC impurity content)
# Assay type: physicochemical
# Conditions: for Stability, conclusion in words: stress conditions (high temperature, high humidity, light)
# Experimental: The method for High Performance Liquid Chromatograph (HPLC) in the present disclosure
# Instrument Model: Agilent 1200 High Performance Liquid Chromatograph
# The analysis method is as follows: […]
# About 10 mg of the crystal form B of the compound represented by formula (II) was weighted and placed under stability test conditions, and the samples were collected and analyzed after 5 days, 10 days, and 1 month.
# About 10 mg of the crystal form C of the compound represented by formula (III) was weighted and placed under stability test conditions, and the samples were collected and analyzed after 5 days, 10 days, and 1 month respectively.
# [1] = form B, 40° C. relative humidity 75%, 1 month
# [2] = form B, 40° C. relative humidity 75%, 10 days
# [3] = form B, 60° C. relative humidity 75%, 1 month
# [4] = form B, 60° C. relative humidity 75%, 10 days
# [5] = form B, Light (total illuminance = 1.2 × 106 Lux · hr/near ultraviolet = 200 w · hr/m^2)
# [6] = form B, Relative humidity 92.5%, 1 month
# [7] = form B, Relative humidity 92.5%, 5 days
# [8] = form B, Relative humidity 92.5%, 10 days
# [9] = form C, Light (total illuminance = 1.2 × 106 Lux · hr/near ultraviolet = 200 w · hr/m^2)
smiles,measurement,setting,value
C[C@H](c1cccc(-c2ncc(OCC3CCN(C)CC3)cn2)c1)n1cc(-c2cc(C#N)ccn2)cc(F)c1=O.Cl,"Impurity content, relative retention time 0.77","form B, 0 day",0.05%
same,"Impurity content, relative retention time 1.04","form B, 0 day",2.18%
same,Total impurities,"form B, 0 day",2.24%
same,"Impurity content, relative retention time 0.77",[1],0.23%
same,"Impurity content, relative retention time 1.04",[1],1.95%
same,Total impurities,[1],2.18%
same,"Impurity content, relative retention time 0.77",[2],0.18%
same,"Impurity content, relative retention time 1.04",[2],2.02%
same,Total impurities,[2],2.2%
same,"Impurity content, relative retention time 0.77",[3],0.36%
same,"Impurity content, relative retention time 1.04",[3],1.76%
same,Total impurities,[3],2.12%
same,"Impurity content, relative retention time 0.77",[4],0.42%
same,"Impurity content, relative retention time 1.04",[4],1.72%
same,Total impurities,[4],2.13%
same,"Impurity content, relative retention time 0.77","form B, 60° C., 1 month",0.05%
same,"Impurity content, relative retention time 1.04","form B, 60° C., 1 month",2.27%
same,"Impurity content, relative retention time 1.4","form B, 60° C., 1 month",0.28%
same,"Impurity content, relative retention time 1.41","form B, 60° C., 1 month",0.07%
same,"Impurity content, relative retention time 1.43","form B, 60° C., 1 month",0.06%
same,"Impurity content, relative retention time 1.49","form B, 60° C., 1 month",0.05%
same,Total impurities,"form B, 60° C., 1 month",2.78%
same,"Impurity content, relative retention time 0.77","form B, 60° C., 5 days",0.06%
same,"Impurity content, relative retention time 1.04","form B, 60° C., 5 days",2.18%
same,"Impurity content, relative retention time 1.4","form B, 60° C., 5 days",0.06%
same,Total impurities,"form B, 60° C., 5 days",2.3%
same,"Impurity content, relative retention time 1.04","form B, 60° C., 10 days",2.16%
same,"Impurity content, relative retention time 1.4","form B, 60° C., 10 days",0.12%
same,Total impurities,"form B, 60° C., 10 days",2.29%
same,"Impurity content, relative retention time not resolvable (one of 1.4 to 1.49)",[5],0.17%
same,Total impurities,[5],2.39%
same,"Impurity content, relative retention time 0.77",[6],0.2%
same,"Impurity content, relative retention time 1.04",[6],2.03%
same,Total impurities,[6],2.23%
same,"Impurity content, relative retention time 0.77",[7],0.13%
same,"Impurity content, relative retention time 1.04",[7],2.08%
same,Total impurities,[7],2.21%
same,"Impurity content, relative retention time 0.77",[8],0.16%
same,"Impurity content, relative retention time 1.04",[8],2.04%
same,Total impurities,[8],2.2%
same,"Stability, conclusion in words",,stable under high temperature and light conditions
C[C@H](c1cccc(-c2ncc(OCC3CCN(C)CC3)cn2)c1)n1cc(-c2cc(C#N)ccn2)cc(F)c1=O [crystal form C of the compound represented by formula (III)],Total impurities,"form C, 0 day",2.22%
same,Total impurities,"form C, 40° C. Relative humidity 75%, 1 month",2.31%
same,Total impurities,"form C, 40° C. Relative humidity 75%, 10 days",2.26%
same,Total impurities,"form C, 60° C. Relative humidity 75%, 1 month",12.75%
same,Total impurities,"form C, 60° C. Relative humidity 75%, 10 days",6.04%
same,Total impurities,"form C, 60° C., 1 month",2.35%
same,Total impurities,"form C, 60° C., 5 days",2.27%
same,Total impurities,"form C, 60° C., 10 days",2.35%
same,"Impurity content, relative retention time 0.45 (column inferred)",[9],0.05%
same,"Impurity content, relative retention time 0.7 (column inferred)",[9],0.12%
same,"Impurity content, relative retention time 0.75 (column inferred)",[9],0.05%
same,"Impurity content, relative retention time 0.87 or 0.94 (column inferred)",[9],0.24%
same,Total impurities,[9],2.94%
same,Total impurities,"form C, Relative humidity 92.5%, 1 month",2.28%
same,Total impurities,"form C, Relative humidity 92.5%, 5 days",2.29%
same,Total impurities,"form C, Relative humidity 92.5%, 10 days",2.22%
same,"Stability, conclusion in words",,relatively stable under high temperature and high humidity conditions
